Test results taken from PubChem BioAssay AID248 (DTP/NCI, 2004).
Where “and” joins values, the source holds several entries; their conditions need not be identical. Equal values may be shown once. Toxic doses and inconclusive results are not listed. No stated cut-off is given here; in the data, active means T/C of 150% or more; inactive means T/C below 125%.

System: L1210 leukemia ip in BDF1 mice, survival T/C
Assay: NCI In Vivo Anticancer Drug Screen. Data for tumor model L1210 Leukemia (intraperitoneal) in B6D2F1 (BDF1) mice
Conditions: endpoint: mean survival time, higher = longer survival
Summary of the method: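 Transplanted-tumor mice were given test agent; controls received vehicle only. Survival readings from the two groups were divided (treated over control).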

[1] = dose: 100.0 mg/kg/injection, schedule: Q01DX009 (ip), vehicle: Klucel (hydroxypropylcellulose) (HPC)
[2] = dose: 100.0 mg/kg/injection, schedule: Q04DX002 (ip), vehicle: Klucel (hydroxypropylcellulose) (HPC)
[3] = dose: 200.0 mg/kg/injection, schedule: Q01DX009 (ip), vehicle: Klucel (hydroxypropylcellulose) (HPC)
[4] = dose: 200.0 mg/kg/injection, schedule: Q04DX002 (ip), vehicle: Klucel (hydroxypropylcellulose) (HPC)
[5] = dose: 400.0 mg/kg/injection, schedule: Q01DX009 (ip), vehicle: Klucel (hydroxypropylcellulose) (HPC)
[6] = dose: 400.0 mg/kg/injection, schedule: Q04DX002 (ip), vehicle: Klucel (hydroxypropylcellulose) (HPC)
[7] = dose: 75.0 mg/kg/injection, schedule: Q01DX001 (ip), vehicle: saline
[8] = dose: 100.0 mg/kg/injection, schedule: Q04DX003 (ip), vehicle: saline with Tween-80
[9] = dose: 200.0 mg/kg/injection, schedule: Q04DX003 (ip), vehicle: saline with Tween-80
[10] = dose: 400.0 mg/kg/injection, schedule: Q04DX003 (ip), vehicle: saline with Tween-80
[11] = dose: 100.0 mg/kg/injection, schedule: Q01DX001 (ip), vehicle: carboxymethylcellulose (CMC)
[12] = dose: 200.0 mg/kg/injection, schedule: Q01DX001 (ip), vehicle: carboxymethylcellulose (CMC)
[13] = dose: 100.0 mg/kg/injection, schedule: Q04DX003 (ip), vehicle: Klucel (hydroxypropylcellulose) (HPC)
[14] = dose: 200.0 mg/kg/injection, schedule: Q04DX003 (ip), vehicle: Klucel (hydroxypropylcellulose) (HPC)
[15] = dose: 400.0 mg/kg/injection, schedule: Q04DX003 (ip), vehicle: Klucel (hydroxypropylcellulose) (HPC)
[16] = dose: 100.0 mg/kg/injection, schedule: Q04DX002 (ip), vehicle: saline
[17] = dose: 200.0 mg/kg/injection, schedule: Q04DX002 (ip), vehicle: saline

Measured: T/C

CC(=O)Oc1c(F)c(F)c(F)c(F)c1F
inactive: dose: 25.0 mg/kg/injection, schedule: Q04DX002 (ip), vehicle: saline with Tween-80 87 % of control | dose: 50.0 mg/kg/injection, schedule: Q04DX002 (ip), vehicle: saline with Tween-80 90 % of control | dose: 100.0 mg/kg/injection, schedule: Q04DX002 (ip), vehicle: saline with Tween-80 93 % of control

NC(=O)/C(=C\c1ccc([N+](=O)[O-])o1)c1ccccc1
inactive: dose: 100.0 mg/kg/injection, schedule: Q01DX001 (ip), vehicle: Klucel (hydroxypropylcellulose) (HPC) 96 % of control | dose: 200.0 mg/kg/injection, schedule: Q01DX001 (ip), vehicle: Klucel (hydroxypropylcellulose) (HPC) 93 % of control | dose: 400.0 mg/kg/injection, schedule: Q01DX001 (ip), vehicle: Klucel (hydroxypropylcellulose) (HPC) 96 % of control

O=C(Nc1cccc(C(F)(F)F)c1)Nc1nccs1
inactive: [1] 100 % of control | [2] 94 % of control | [3] 115 % of control | [4] 108 % of control | [5] 92 % of control | [6] 89 % of control

c1ccc(N=Nc2ccc[nH]2)cc1
inactive: dose: 50.0 mg/kg/injection, schedule: Q01DX009 (ip), vehicle: acetone 98 % of control | dose: 100.0 mg/kg/injection, schedule: Q01DX009 (ip), vehicle: acetone 102 % of control

CCCC(CCC)NCCOC(=O)C(CC)c1ccccc1 (stereo not given)
inactive: [7] 94 % of control

CCCCNC(=O)CS(=O)(=O)c1ccc(Cl)cc1
inactive: [8] 94 % of control | [9] 100 % of control | [10] 94 % of control

O=Cc1[nH]c(=S)[nH]c(=O)c1Cc1c(Cl)cccc1Cl
inactive: dose: 100.0 mg/kg/injection, schedule: Q01DX001 (ip), vehicle: saline with Tween-80 101 % of control | dose: 200.0 mg/kg/injection, schedule: Q01DX001 (ip), vehicle: saline with Tween-80 101 % of control | dose: 400.0 mg/kg/injection, schedule: Q01DX001 (ip), vehicle: saline with Tween-80 106 % of control

N/N=C(/CC1C(=O)Nc2ccccc21)c1ccccc1 (stereo not given)
inactive: [2] 94 % of control | [4] 108 % of control | [6] 91 % of control

COc1ccc(CCNC(=O)/C=C\C(=O)O)cc1OC
inactive: [8] 100 % of control | [9] 98 % of control | [10] 96 % of control

CC[P+](c1ccccc1)(c1ccccc1)c1ccccc1
inactive: dose: 0.62 mg/kg/injection, schedule: Q01DX009 (ip), vehicle: saline 100 % of control | dose: 0.62 mg/kg/injection, schedule: Q04DX003 (ip), vehicle: saline 100 % of control | dose: 1.25 mg/kg/injection, schedule: Q01DX009 (ip), vehicle: saline 100 % of control | dose: 1.25 mg/kg/injection, schedule: Q04DX003 (ip), vehicle: saline 97 % of control | dose: 2.5 mg/kg/injection, schedule: Q01DX009 (ip), vehicle: saline 100 % of control | dose: 2.5 mg/kg/injection, schedule: Q04DX003 (ip), vehicle: saline 97 % of control

CCN(CC)C(=O)c1ccc(COc2cc(Cl)cc(Cl)c2)cc1
inactive: [1] 94 % of control | [3] 97 % of control | [5] 96 % of control

CC(=O)OCC1OC(n2cc(C)c(=O)[nH]c2=O)C(NC(=O)C(Cl)(Cl)Cl)C(OC(C)=O)C1OC(C)=O (stereo not given)
inactive: dose: 50.0 mg/kg/injection, schedule: Q01DX001 (ip), vehicle: carboxymethylcellulose (CMC) 105 % of control | [11] 96 % of control | [12] 100 % of control | dose: 400.0 mg/kg/injection, schedule: Q01DX001 (ip), vehicle: carboxymethylcellulose (CMC) 103 % of control

Cc1nc(N)nc(N)c1-c1ccc([N+](=O)[O-])cc1
inactive: [11] 95 % of control | [12] 95 % of control

Nc1c(C(=O)O)cc(Br)c2c1C(=O)c1ccccc1C2=O
inactive: [13] 97 % of control | [14] 95 % of control

c1ccc2cc(SCCCN3CCOCC3)ccc2c1
inactive: dose: 100.0 mg/kg/injection, schedule: Q01DX009 (ip), vehicle: saline sonified 97 % of control | [13] 95 % of control | dose: 200.0 mg/kg/injection, schedule: Q01DX009 (ip), vehicle: saline sonified 116 % of control | [14] 95 % of control | [15] 90 % of control

Cc1ccc(S(C)=O)c(C)c1 (stereo not given)
inactive: dose: 100.0 mg/kg/injection, schedule: Q01DX009 (ip), vehicle: saline 97 % of control | dose: 200.0 mg/kg/injection, schedule: Q01DX009 (ip), vehicle: saline 96 % of control

CC(C)CCOC(=O)N(C)c1ccccc1
inactive: dose: 75.0 mg/kg/injection, schedule: Q04DX002 (ip), vehicle: Klucel (hydroxypropylcellulose) (HPC) 101 % of control | dose: 150.0 mg/kg/injection, schedule: Q04DX002 (ip), vehicle: Klucel (hydroxypropylcellulose) (HPC) 105 % of control | dose: 300.0 mg/kg/injection, schedule: Q04DX002 (ip), vehicle: Klucel (hydroxypropylcellulose) (HPC) 105 % of control

Cc1cc(C)c(B2OB(c3c(C)cc(C)cc3C)O2)c(C)c1
inactive: [1] 95 % of control | [13] 96 % of control | [3] 97 % of control | [14] 103 % of control | [15] 91 % of control

CC(C)(CO)c1ccccc1
inactive: dose: 100.0 mg/kg/injection, schedule: Q01DX001 (ip), vehicle: saline 104 % of control | dose: 200.0 mg/kg/injection, schedule: Q01DX001 (ip), vehicle: saline 104 % of control | dose: 400.0 mg/kg/injection, schedule: Q01DX001 (ip), vehicle: saline 107 % of control

CC(=O)OC1C=CC(Oc2ccc([N+](=O)[O-])cc2)OC1CO (stereo not given)
inactive: dose: 100.0 mg/kg/injection, schedule: Q04DX003 (ip), vehicle: saline 93 % of control | dose: 200.0 mg/kg/injection, schedule: Q04DX003 (ip), vehicle: saline 91 % of control | dose: 400.0 mg/kg/injection, schedule: Q04DX003 (ip), vehicle: saline 96 % of control

O=C(O)Cc1c[nH]c(=O)[nH]c1=O
inactive: dose: 100.0 mg/kg/injection, schedule: Q01DX009 (ip), vehicle: saline with Tween-80 97 % of control | [8] 102 % of control | dose: 200.0 mg/kg/injection, schedule: Q01DX009 (ip), vehicle: saline with Tween-80 103 % of control | [9] 103 % of control | dose: 400.0 mg/kg/injection, schedule: Q01DX009 (ip), vehicle: saline with Tween-80 101 % of control | [10] 92 % of control

C1=NC(c2ccccc2)=CN(C2CCCC2)C1(c1ccccc1)C1CCCC1 (stereo not given)
inactive: dose: 50.0 mg/kg/injection, schedule: Q04DX002 (ip), vehicle: saline 105 % of control | [2] 98 % of control | [16] 108 % of control | [4] 98 % of control | [17] 108 % of control | [6] 109 % of control

CC(C)C1(Cc2ccccc2)C(=O)NC(=S)NC1=O
inactive: [7] 95 % of control | dose: 150.0 mg/kg/injection, schedule: Q01DX001 (ip), vehicle: saline 93 % of control

COc1ccc(CCN)cc1OC
inactive: [16] 106 % of control | [17] 100 % of control | dose: 400.0 mg/kg/injection, schedule: Q04DX002 (ip), vehicle: saline 100 % of control

Clc1cc(Cc2ccc(N=C/C=C/c3ccccc3)c(Cl)c2)ccc1N=C/C=C\c1ccccc1
inactive: [2] 100 % of control | [4] 93 % of control | [6] 86 % of control

NC1(C(=O)O)CCc2ccccc2C1 (stereo not given)
inactive: [13] 91 % of control | [15] 99 % of control

CCOC(=O)N/N=C(\C)c1ccc(OC)cc1
inactive: [1] 98 % of control | [3] 112 % of control

CC(=O)NCC1OC(COCc2ccccc2)C(OCc2ccccc2)C1OCc1ccccc1 (stereo not given)
inactive: [13] 107 % of control | [14] 96 % of control | [15] 107 % of control

COc1cc(C=O)ccc1OC(=O)Nc1ccc(F)c([N+](=O)[O-])c1
inactive: dose: 25.0 mg/kg/injection, schedule: Q01DX009 (ip), vehicle: other 97 % of control | dose: 50.0 mg/kg/injection, schedule: Q01DX009 (ip), vehicle: other 92 % of control | dose: 100.0 mg/kg/injection, schedule: Q01DX009 (ip), vehicle: other 97 % of control and 98 % of control
